Experimental data: ChEMBL document CHEMBL1201862, “PubChem BioAssay data set” (2004)
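Briefly, cells in 96-well plates were exposed to five compound concentrations for 48 h, and endpoints were estimated by linear interpolation. Abbreviation: GI50, concentration required for 50% inhibition of growth.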 Activity calls are given as the source filed them. Rule as the data show it: active = GI50 up to about 1.1 µM and inactive = higher.

Assays:
Assay in all cases: NCI tumour cell line growth inhibition, 48 h
NCI-H226 = tested on: NCI-H226
SN12C = tested on: SN12C
DMS-114 = tested on: DMS-114
Malme-3M = tested on: Malme-3M
HCC 2998 = tested on: HCC 2998
A549 = tested on: A549
SK-MEL-5 = tested on: SK-MEL-5
TK-10 = tested on: TK-10
OVCAR-8 = tested on: OVCAR-8
CAKI-1 = tested on: CAKI-1
SK-OV-3 = tested on: SK-OV-3
U-251 = tested on: U-251
CCRF-CEM = tested on: CCRF-CEM
K562 = tested on: K562
NCI-H460 = tested on: NCI-H460
A498 = tested on: A498
OVCAR-3 = tested on: OVCAR-3
MDA-MB-231 = tested on: MDA-MB-231
Hs-578T = tested on: Hs-578T

What does the source list for CN(C)CC1CC/C(=C\c2ccc(Cl)c(Cl)c2)C1=O (stereo not given)?
GI50 (NCI-H226): > 100 µM (inactive); GI50 (SN12C): > 38.9 µM (inactive); GI50 (DMS-114): > 47.8 µM (inactive); GI50 (Malme-3M): > 62.5 µM (inactive); GI50 (HCC 2998): > 40.8 µM (inactive); GI50 (A549): > 100 µM (inactive); GI50 (SK-MEL-5): 45.7 µM (inactive); GI50 (TK-10): 13.2 µM (inactive); GI50 (OVCAR-8): 25.6 µM (inactive); GI50 (CAKI-1): 14.8 µM (inactive); GI50 (SK-OV-3): > 100 µM (inactive); GI50 (U-251): > 42.3 µM (inactive); GI50 (CCRF-CEM): 2.49 µM (inactive); GI50 (K562): 5.58 µM (inactive); GI50 (NCI-H460): 17.4 µM (inactive); GI50 (A498): 30.2 µM (inactive); GI50 (OVCAR-3): 28.3 µM (inactive)

What does the source list for CCOc1ccc(NC(=O)C2=C(C)NC(C)=C(C(=O)Nc3ccc(OCC)cc3)C2c2ccc(O)c(OC)c2)cc1?
GI50 (NCI-H226): 40.3 µM (inactive); GI50 (SN12C): 86.3 µM (inactive); GI50 (DMS-114): 56.5 µM (inactive); GI50 (Malme-3M): 64.1 µM (inactive); GI50 (HCC 2998): 2.35 µM (inactive); GI50 (A549): > 100 µM (inactive); GI50 (SK-MEL-5): 46 µM (inactive); GI50 (TK-10): > 100 µM (inactive); GI50 (OVCAR-8): 87.3 µM (inactive); GI50 (CAKI-1): > 100 µM (inactive); GI50 (SK-OV-3): > 100 µM (inactive); GI50 (U-251): 55.6 µM (inactive); GI50 (CCRF-CEM): 46.9 µM (inactive); GI50 (K562): 40.8 µM (inactive); GI50 (NCI-H460): 80.4 µM (inactive); GI50 (A498): 19.3 µM (inactive); GI50 (OVCAR-3): > 100 µM (inactive)

What does the source list for O=C(/C=C/c1ccc(Cl)c(Cl)c1)c1ccc(F)cc1?
GI50 (NCI-H226): 33.1 µM (inactive); GI50 (SN12C): 22.5 µM (inactive); GI50 (DMS-114): 14.7 µM (inactive); GI50 (Malme-3M): 34.3 µM (inactive); GI50 (HCC 2998): 16.6 µM (inactive); GI50 (A549): 42.8 µM (inactive); GI50 (SK-MEL-5): 19.9 µM (inactive); GI50 (TK-10): 25.4 µM (inactive); GI50 (OVCAR-8): 16.7 µM (inactive); GI50 (CAKI-1): 18.5 µM (inactive); GI50 (SK-OV-3): 29 µM (inactive); GI50 (U-251): 13 µM (inactive); GI50 (CCRF-CEM): 4.42 µM (inactive); GI50 (K562): 4.33 µM (inactive); GI50 (NCI-H460): 23.6 µM (inactive); GI50 (A498): 50.9 µM (inactive); GI50 (OVCAR-3): 18.6 µM (inactive)

For CN(C)CCNC(=O)c1cccc2nc3c(ccc4ccccc43)nc12, which GI50 (NCI-H226) is on record?
The GI50 was 2.9 µM (inactive).

And the GI50 (MDA-MB-231)?
Its GI50 is 1.81 µM (inactive).

And the GI50 (SN12C)?
Its GI50 is 2.48 µM (inactive).

And the GI50 (DMS-114)?
Its GI50 is 2.69 µM (inactive).

What about the GI50 (Malme-3M) of the same compound?
The GI50 was 1.56 µM (inactive).

What about the GI50 (HCC 2998) of the same compound?
The GI50 was 1.98 µM (inactive).

What about the GI50 (A549) of the same compound?
Its GI50 is 1.21 µM (inactive).

And the GI50 (SK-MEL-5)?
The GI50 was 1.76 µM (inactive).

What about the GI50 (TK-10) of the same compound?
Its GI50 is 7.93 µM (inactive).

And the GI50 (OVCAR-8)?
The GI50 was 1.73 µM (inactive).

What about the GI50 (CAKI-1) of the same compound?
Its GI50 is 3.37 µM (inactive).

And the GI50 (SK-OV-3)?
Its GI50 is 5.42 µM (inactive).

What about the GI50 (U-251) of the same compound?
The GI50 was 1.47 µM (inactive).

And the GI50 (CCRF-CEM)?
Its GI50 is 1.16 µM (inactive).

And the GI50 (K562)?
Its GI50 is 1.52 µM (inactive).

And the GI50 (NCI-H460)?
Its GI50 is 0.479 µM (active).

What about the GI50 (A498) of the same compound?
The GI50 was 2.95 µM (inactive).

And the GI50 (OVCAR-3)?
Its GI50 is 7.89 µM (inactive).

And the GI50 (Hs-578T)?
Its GI50 is 3.62 µM (inactive).

For COC(=O)/C(=C\c1ccc(N(CCC#N)CCC#N)cc1)NC(=O)c1cc([N+](=O)[O-])ccc1Cl, which GI50 (NCI-H226) is on record?
Its GI50 is > 100 µM (inactive).

What about the GI50 (SN12C) of the same compound?
Its GI50 is > 100 µM (inactive).

And the GI50 (DMS-114)?
The GI50 was > 100 µM (inactive).

And the GI50 (Malme-3M)?
Its GI50 is > 100 µM (inactive).

And the GI50 (HCC 2998)?
The GI50 was > 100 µM (inactive).

And the GI50 (A549)?
The GI50 was > 100 µM (inactive).

And the GI50 (SK-MEL-5)?
Its GI50 is > 100 µM (inactive).

And the GI50 (TK-10)?
The GI50 was > 100 µM (inactive).

What about the GI50 (OVCAR-8) of the same compound?
Its GI50 is > 100 µM (inactive).

And the GI50 (CAKI-1)?
Its GI50 is > 100 µM (inactive).

What about the GI50 (SK-OV-3) of the same compound?
The GI50 was > 100 µM (inactive).

And the GI50 (U-251)?
Its GI50 is > 100 µM (inactive).

And the GI50 (CCRF-CEM)?
The GI50 was > 100 µM (inactive).

And the GI50 (K562)?
Its GI50 is > 100 µM (inactive).

What about the GI50 (NCI-H460) of the same compound?
The GI50 was > 100 µM (inactive).

What about the GI50 (A498) of the same compound?
The GI50 was > 100 µM (inactive).

What about the GI50 (OVCAR-3) of the same compound?
Its GI50 is > 100 µM (inactive).

With Nc1c(C(=O)Nc2ccccc2)[n+]([O-])c2ccccc2[n+]1[O-] as the compound, how does the GI50 (NCI-H226) read?
The GI50 was 23.9 µM (inactive).

And the GI50 (SN12C)?
The GI50 was 14.8 µM (inactive).

What about the GI50 (DMS-114) of the same compound?
The GI50 was 9.62 µM (inactive).

And the GI50 (Malme-3M)?
The GI50 was > 10 µM (inactive).

And the GI50 (HCC 2998)?
Its GI50 is 17.6 µM (inactive).

What about the GI50 (A549) of the same compound?
Its GI50 is 25.1 µM (inactive).

And the GI50 (SK-MEL-5)?
The GI50 was 14.3 µM (inactive).

And the GI50 (TK-10)?
The GI50 was 24.7 µM (inactive).

What about the GI50 (OVCAR-8) of the same compound?
Its GI50 is 36.8 µM (inactive).

And the GI50 (CAKI-1)?
Its GI50 is 5.6 µM (inactive).

And the GI50 (SK-OV-3)?
The GI50 was > 100 µM (inactive).

And the GI50 (U-251)?
The GI50 was 12.9 µM (inactive).

And the GI50 (CCRF-CEM)?
The GI50 was 19.1 µM (inactive).

What about the GI50 (K562) of the same compound?
The GI50 was 17.1 µM (inactive).

What about the GI50 (NCI-H460) of the same compound?
Its GI50 is 14.9 µM (inactive).

And the GI50 (A498)?
The GI50 was 16.9 µM (inactive).

And the GI50 (OVCAR-3)?
The GI50 was 17.3 µM (inactive).

Which results are given for Cc1cc(N(CCC#N)CCC#N)ccc1/C=C(/NC(=O)/C=C/c1ccccc1)C(N)=O?
GI50 (NCI-H226): > 100 µM (inactive); GI50 (SN12C): > 100 µM (inactive); GI50 (DMS-114): > 100 µM (inactive); GI50 (Malme-3M): > 100 µM (inactive); GI50 (HCC 2998): > 100 µM (inactive); GI50 (A549): > 100 µM (inactive); GI50 (SK-MEL-5): > 100 µM (inactive); GI50 (TK-10): > 100 µM (inactive); GI50 (OVCAR-8): > 100 µM (inactive); GI50 (CAKI-1): > 100 µM (inactive); GI50 (SK-OV-3): > 100 µM (inactive); GI50 (U-251): > 100 µM (inactive); GI50 (CCRF-CEM): > 100 µM (inactive); GI50 (K562): 62.1 µM (inactive); GI50 (NCI-H460): > 100 µM (inactive); GI50 (A498): > 100 µM (inactive); GI50 (OVCAR-3): > 100 µM (inactive)

For CCCCCCNC(=O)CCN(C(=O)O)S(=O)(=O)c1ccc(NC(=O)c2ccccc2)cc1, which GI50 (NCI-H226) is on record?
Its GI50 is > 100 µM (inactive).

What about the GI50 (SN12C) of the same compound?
The GI50 was > 100 µM (inactive).

And the GI50 (DMS-114)?
Its GI50 is 20.4 µM (inactive).

And the GI50 (Malme-3M)?
The GI50 was > 100 µM (inactive).

What about the GI50 (HCC 2998) of the same compound?
The GI50 was > 100 µM (inactive).

What about the GI50 (A549) of the same compound?
Its GI50 is > 45.7 µM (inactive).

What about the GI50 (SK-MEL-5) of the same compound?
The GI50 was > 100 µM (inactive).

What about the GI50 (TK-10) of the same compound?
Its GI50 is > 100 µM (inactive).

And the GI50 (OVCAR-8)?
Its GI50 is > 61.2 µM (inactive).

What about the GI50 (CAKI-1) of the same compound?
Its GI50 is > 100 µM (inactive).

What about the GI50 (SK-OV-3) of the same compound?
Its GI50 is > 100 µM (inactive).

And the GI50 (U-251)?
Its GI50 is 20 µM (inactive).

And the GI50 (CCRF-CEM)?
Its GI50 is 22.3 µM (inactive).

And the GI50 (K562)?
The GI50 was > 48.2 µM (inactive).

What about the GI50 (NCI-H460) of the same compound?
The GI50 was 27.6 µM (inactive).

What about the GI50 (A498) of the same compound?
Its GI50 is > 100 µM (inactive).

And the GI50 (OVCAR-3)?
The GI50 was > 100 µM (inactive).

Which results are given for Cc1cc2c(cc1C)[n+]([O-])c(C(=O)CC(=O)C(=O)Nc1c(C(C)C)cccc1C(C)C)c(C)[n+]2[O-]?
GI50 (NCI-H226): > 100 µM (inactive); GI50 (SN12C): > 100 µM (inactive); GI50 (DMS-114): > 100 µM (inactive); GI50 (Malme-3M): > 100 µM (inactive); GI50 (HCC 2998): > 100 µM (inactive); GI50 (A549): > 100 µM (inactive); GI50 (SK-MEL-5): > 100 µM (inactive); GI50 (TK-10): > 100 µM (inactive); GI50 (OVCAR-8): > 100 µM (inactive); GI50 (CAKI-1): > 100 µM (inactive); GI50 (SK-OV-3): > 100 µM (inactive); GI50 (U-251): > 100 µM (inactive); GI50 (CCRF-CEM): > 100 µM (inactive); GI50 (K562): > 100 µM (inactive); GI50 (NCI-H460): > 100 µM (inactive); GI50 (A498): > 100 µM (inactive); GI50 (OVCAR-3): > 100 µM (inactive)
